Here are results for four molecules from patent US20040248958A1, “Heterocyclic amide derivatives” (priority 2001, published 2004).

The series can be described thus: logP determination by HPLC on reversed-phase column (EEC Directive 79/831 Annex V.A8). The series is classed as physicochemical. To be noted: reversed-phase HPLC column (C18), preparation examples. As to the method:
The logP values indicated were determined in accordance with EEC Directive 79/831 Annex V.A8 by means of HPLC (High Performance Liquid Chromatography) on a reversed-phase column (C 18). Temperature: 43° C. (a) Eluents for determination in the acidic range: 0.1% aqueous phosphoric acid, acetonitriie; linear gradient from 10% acetonitrile to 90% acetonitrile. (b) Eluents for determination in the neutral range: 0.01 molar aqueous phosphate buffer solution, acetonitrile; linear gradient from 10% acetonitrile to 90% acetonitrile.

The mark [1] stands for this setting: pH 2.3, HPLC C18, 43° C., read-out: logP (pH 2.3).

The structures appear in SMILES notation. Where two headings read alike, the source gives them in different places.

On to `Cc1ccc(C(=O)Nn2c(-c3ccccc3)nc(C)c2C)cc1` [Example I-2], for which the chromatographic logP (pH 7.5, HPLC C18, 43° C., read-out: logP (pH 7.5)) was 2.17.

For `CCc1ccc(C(=O)Nn2c(-c3cc(C)cc(C)c3)nc(C)c2C)cc1` [Example I-1], the chromatographic logP under setting [1] worked out at 1.97.

On to `Cc1cc(C)cc(-c2nc(C)c(C)n2N)c1` [II-1], for which, under setting [1], the chromatographic logP came to 0.96.

Regarding `Cc1ccc(S(=O)(=O)Nn2c(-c3cc(C)cc(C)c3)nc(C)c2C)cc1` [IV-1], under setting [1], the chromatographic logP came to 1.69.
